Laboratory results: patent publication US8389527B2, “Substituted imidazopyridazines useful as kinase inhibitors” (Bristol-Myers Squibb Company, priority 2008, dated 2013)

Key:
recombinant CK2A1 = target: T1, recombinant CK2A1 (Homo sapiens, UniProt P68400); assay: CK2 kinase assay (CK2A1), [γ-33P]ATP filter-binding; format: biochemical; conditions: recombinant CK2A1 10 nM, ATP 25 μM, 10 μM peptide substrate, 30° C. 1 h
T1 construct: purchased Invitrogen
Procedure: (§1) The effectiveness of compounds of the present invention as inhibitors of protein kinases can be readily tested by assays known to those skilled in the art. For example, in vitro protein kinase assays may be conducted with a relevant purified protein kinase and an appropriate synthetic substrate to determine the inhibitory activities of the compounds. […] Reaction mixtures were incubated at 30° C. for 1 h, and reaction products were captured by binding to phosphocellulose (P81) filter plates. Incorporation of radioactive phosphate into the peptide substrate was determined by liquid scintillation counting. The potency of compounds in inhibiting CK2 is expressed as IC50, defined as the concentrations of compounds required to inhibit the enzymatic activity by 50%.

recombinant CK2A2 = target: T2, recombinant CK2A2 (Homo sapiens, UniProt P19784); assay: CK2 kinase assay (CK2A2), [γ-33P]ATP filter-binding; format: biochemical; conditions: recombinant CK2A2 5 nM, ATP 5 μM, 10 μM peptide substrate, 30° C. 1 h
T2 construct: purchased Upstate Biotechnology
T2 sequence (P19784 whole entry): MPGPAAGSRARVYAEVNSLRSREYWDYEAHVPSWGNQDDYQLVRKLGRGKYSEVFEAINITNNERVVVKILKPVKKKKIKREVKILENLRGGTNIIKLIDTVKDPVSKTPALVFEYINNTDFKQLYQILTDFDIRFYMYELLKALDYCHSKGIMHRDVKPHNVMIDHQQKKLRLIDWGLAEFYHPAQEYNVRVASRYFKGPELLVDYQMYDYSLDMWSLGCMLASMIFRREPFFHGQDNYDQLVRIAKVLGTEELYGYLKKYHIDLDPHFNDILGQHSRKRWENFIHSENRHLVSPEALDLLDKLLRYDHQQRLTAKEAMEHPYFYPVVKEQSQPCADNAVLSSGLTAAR
Procedure: as §1

HCT116 = assay: Cell proliferation inhibition assay (MTT, CellTiter96); format: cell-based; conditions: Homo sapiens, HCT-116; HCT116 cells, 72 h with compound, MTT readout
Procedure: B. Cell Proliferation Inhibition Assay
Compounds were evaluated for their ability to inhibit cell proliferation, using an assay that measures mitochondrial metabolic activity, that is directly correlated with cell numbers. Cells were plated at 2000 cells/well in 96-well plates and were cultured for 24 h in RPMI-1640 supplemented with 2% fetal bovine serum, before test compounds were added. Compounds were diluted in culture medium such that the final concentration of dimethyl sulfoxide never exceeded 1%. Following the addition of compounds, the cells were cultured for an additional 72 h before cell viability was determined by measuring the conversion of 3-(4,5-dimethylthiazol-2-yl)-2,5-diphenyltetrazolium bromide (MTT) dye using the CellTiter96 kit (Promega).

T1 sequence (P68400 whole entry): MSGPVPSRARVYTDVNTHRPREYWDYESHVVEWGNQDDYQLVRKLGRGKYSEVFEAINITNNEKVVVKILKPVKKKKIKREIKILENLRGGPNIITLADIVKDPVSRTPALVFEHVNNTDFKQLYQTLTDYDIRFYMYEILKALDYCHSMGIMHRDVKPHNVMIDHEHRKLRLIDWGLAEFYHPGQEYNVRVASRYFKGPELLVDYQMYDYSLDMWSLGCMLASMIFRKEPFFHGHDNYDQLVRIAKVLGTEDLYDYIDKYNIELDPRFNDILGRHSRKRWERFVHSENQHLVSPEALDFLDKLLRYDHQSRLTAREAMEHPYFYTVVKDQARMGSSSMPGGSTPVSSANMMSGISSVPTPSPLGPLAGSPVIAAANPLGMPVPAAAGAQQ

## O=C(Nc1ccnc(Cl)c1)c1cnc2c(NC3CC3)cc(N[C@H]3CC[C@H](NCCO)CC3)nn12 [Example 531, N-(2-chloro-4-pyridinyl)-8-(cyclopropylamino)-6-((trans-4-((2-hydroxyethyl)amino)cyclohexyl)amino) imidazo[1,2-b]pyridazine-3-carboxamide]
Recombinant CK2A1
  IC50: 28 nM
Recombinant CK2A2
  IC50: 3 nM
HCT116
  IC50: 260 nM

## O=C(Nc1ccnc(Cl)c1)c1cnc2c(NC3CC3)cc(N[C@H]3CC[C@H](N(CCO)CCO)CC3)nn12 [Example 534, 6-((trans-4-(bis(2-hydroxyethyl)amino)cyclohexyl)amino)-N-(2-chloro-4-pyridinyl)-8-(cyclopropylamino)imidazo [1,2-b]pyridazine-3-carboxamide]
Recombinant CK2A1
  IC50: 559 nM
Recombinant CK2A2
  IC50: 145 nM
HCT116
  IC50: 1610 nM

## CC(C)CN[C@H]1CC[C@H](Nc2cc(NC3CC3)c3ncc(C(=O)Nc4ccnc(Cl)c4)n3n2)CC1 [Example 538, N-(2-chloro-4-pyridinyl)-8-(cyclopropylamino)-6-((trans-4-(isobutylamino)cyclohexyl)amino)imidazo [1,2-b]pyridazine-3-carboxamide]
Recombinant CK2A1
  IC50: 331 nM
Recombinant CK2A2
  IC50: 42 nM
HCT116
  IC50: 340 nM

## Cc1cc(Nc2cc(N[C@H]3CC[C@H](N)CC3)nn3c(C(=O)Nc4ccnc(Cl)c4)cnc23)nn1C [Example 542, 6-((trans-4-aminocyclohexyl)amino)-N-(2-chloro-4-pyridinyl)-8-((1,5-dimethyl-1H-pyrazol-3-yl)amino)imidazo[1,2-b]pyridazine-3-carboxamide]
Recombinant CK2A1
  IC50: 71 nM
Recombinant CK2A2
  IC50: 18 nM
HCT116
  IC50: 290 nM

## O=C(Nc1ccnc(Cl)c1)c1cnc2c(Nc3ccon3)cc(N[C@H]3CC[C@H](O)CC3)nn12 [Example 549, N-(2-chloro-4-pyridinyl)-6-((trans-4-hydroxycyclohexyl)amino)-8-(3-isoxazolylamino) imidazo[1,2-b]pyridazine-3-carboxamide]
Recombinant CK2A1
  IC50: 26.3 nM
Recombinant CK2A2
  IC50: 0.03 nM
HCT116
  IC50: 20 nM

## Cc1cc(Nc2cc(N[C@H]3CC[C@H](O)CC3)nn3c(C(=O)Nc4ccnc(Cl)c4)cnc23)nn1C [Example 553, N-(2-chloro-4-pyridinyl)-8-((1,5-dimethyl-1H-pyrazol-3-yl)amino)-6-((trans-4-hydroxycyclohexyl)amino)imidazo[1,2-b]pyridazine-3-carboxamide]
Recombinant CK2A1
  IC50: 19.6 nM
Recombinant CK2A2
  IC50: 2.1 nM
HCT116
  IC50: 40 nM

## CC(C)n1ccc(Nc2cc(N[C@H]3CC[C@H](NC(=O)CC#N)CC3)nn3c(C(=O)Nc4ccnc(Cl)c4)cnc23)n1 [Example 559, N-(2-chloro-4-pyridinyl)-6-((trans-4-((cyanoacetyl)amino)cyclohexyl)amino)-8-((1-isopropyl-1H-pyrazol-3-yl)amino)imidazo[1,2-b] pyridazine-3-carboxamide]
Recombinant CK2A1
  IC50: 5.5 nM
Recombinant CK2A2
  IC50: 1 nM
HCT116
  IC50: 80 nM

## Cc1cc(Nc2cc(N[C@H]3CC[C@H](NC(=O)CC#N)CC3)nn3c(C(=O)Nc4ccnc(Cl)c4)cnc23)no1 [Example 560, N-(2-chloro-4-pyridinyl)-6-((trans-4-((cyanoacetyl)amino)cyclohexyl)amino)-8-((5-methyl-3-isoxazolyl)amino) imidazo[1,2-b]pyridazine-3-carboxamide]
Recombinant CK2A1
  IC50: 12.5 nM
Recombinant CK2A2
  IC50: 0.8 nM
HCT116
  IC50: 870 nM

## N#CCC(=O)N[C@H]1CC[C@H](Nc2cc(Nc3nccs3)c3ncc(C(=O)Nc4ccnc(Cl)c4)n3n2)CC1 [Example 562, N-(2-chloro-4-pyridinyl)-6-((trans-4-((cyanoacetyl)amino)cyclohexyl)amino)-8-(1,3-thiazol-2-ylamino)imidazo [1,2-b]pyridazine-3-carboxamide]
Recombinant CK2A1
  IC50: 9.7 nM
Recombinant CK2A2
  IC50: 1.2 nM
HCT116
  IC50: 60 nM

## O=C(Nc1ccnc(Cl)c1)c1cnc2c(NC3CC3)cc(NC3CCSCC3)nn12 [Example 571, N-(2-chloro-4-pyridinyl)-8-(cyclopropylamino)-6-(tetrahydro-2H-thiopyran-4-ylamino)imidazo[1,2-b]pyridazine-3-carboxamide]
Recombinant CK2A1
  IC50: 428 nM
Recombinant CK2A2
  IC50: 97 nM
HCT116
  IC50: 890 nM

## O=C(Nc1ccnc(Cl)c1)c1cnc2c(NC3CC3)cc(NC3CC[S+]([O-])CC3)nn12 (stereo not drawn) [Example 572, 4-((3-((2-chloro-4-pyridinyl)carbamoyl)-8-(cyclopropylamino)imidazo[1,2-b]pyridazin-6-yl)amino)tetrahydro-2H-thiopyranium-1-olate]
Recombinant CK2A1
  IC50: 306 nM
Recombinant CK2A2
  IC50: 73 nM
HCT116
  IC50: 800 nM
